Results reported in patent publication US20250353891A1 (MEDIMMUNE LIMITED, priority 2022, published 2025).
Starred links: 1 amine or outer side, 2 acyl side, 3 side chain; linkers in the order of their positions; H or OH if unused. Non-standard residues stand in square brackets, D forms with d. Residues, ends and D or L forms follow the SMILES beside them. Groups on a side chain read outwards from the residue. *: point of attachment. C18 diacid = O=C(O)CCCCCCCCCCCCCCCCC(=O)*; γGlu = O=C(O)[C@H](CCC(=O)[*:2])N[*:1]; αMeF = C[C@](N)(Cc1ccccc1)C(=O)O; Aib = CC(C)(N)C(=O)O

Key:
wildtype (WT) mice = test: Glucose change in wildtype mice; assay type: in vivo, mouse; conditions: s.c., 120 min vs 0 min, somatostatin pretreatment (octreotide) 30 min prior to cpd
Method in brief: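 Wildtype mice aged 8-14 weeks, fasted 2 h, sometimes pre-treated with octreotide 10 mg/kg 30 min before peptide injection. Blood glucose by glucometer at -30, 0, 30, 60, 120, 180, 240 and 360 min; n=4-8/group, mice reused up to 3 times with ≥1 week wash-out.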

[1] = Proteolytic resistance to FasSSIF/Pancreatin; assay type: in vitro ADME; conditions: simulated intestinal fluid
Method in brief: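 Peptide (1.0 mg) in pre-warmed FasSSIF, proteolysis started with fresh FasSSIF/USP Pancreatin and held at 37 °C. Aliquots at 0, 5, 10, 15, 30 min quenched in 10% TFA; remaining intact peptide estimated by RP-HPLC peak area, UV 210 nm.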

[2] = Proteolytic resistance to FasSSGF containing porcine pancreatic pepsin; assay type: in vitro ADME; conditions: pig, simulated gastric fluid
Method in brief: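 Peptide (250 μM stock in FasSSGF) mixed 1:1 with porcine pepsin stock (0.5 mg/mL in FasSSGF) and held at 37° C; samples at 0, 5, 10, 15 and 30 min quenched in ammonium bicarbonate, pH 8. Intact peptide remaining estimated by RP-HPLC peak area, UV 210 nm.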

[3] = tested on: GLP-1R knockout (KO) mice; test: Glucose change in GLP-1R knockout mice; assay type: in vivo, mouse; conditions: GLP-1R KO mice, s.c., 120 min vs 0 min, somatostatin pretreatment (octreotide) 30 min prior to cpd
Method in brief: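 GLP-1R knockout mice (n=4-8/group, sorted by body weight) were fasted 2 h, and in some studies pretreated with octreotide 10 mg/kg 30 min before peptide injection. Mice were reused up to 3 times with at least 1-week wash-out.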

[4] = target: human GLP-1 receptor (hGLP-1R) (Homo sapiens, UniProt P43220); test: cAMP production (HTRF) in CHO cells expressing hGLP-1R; assay type: cell-based; set-up: expressed in transfected cells
Chain of human GLP-1 receptor (hGLP-1R) (P43220 24-463): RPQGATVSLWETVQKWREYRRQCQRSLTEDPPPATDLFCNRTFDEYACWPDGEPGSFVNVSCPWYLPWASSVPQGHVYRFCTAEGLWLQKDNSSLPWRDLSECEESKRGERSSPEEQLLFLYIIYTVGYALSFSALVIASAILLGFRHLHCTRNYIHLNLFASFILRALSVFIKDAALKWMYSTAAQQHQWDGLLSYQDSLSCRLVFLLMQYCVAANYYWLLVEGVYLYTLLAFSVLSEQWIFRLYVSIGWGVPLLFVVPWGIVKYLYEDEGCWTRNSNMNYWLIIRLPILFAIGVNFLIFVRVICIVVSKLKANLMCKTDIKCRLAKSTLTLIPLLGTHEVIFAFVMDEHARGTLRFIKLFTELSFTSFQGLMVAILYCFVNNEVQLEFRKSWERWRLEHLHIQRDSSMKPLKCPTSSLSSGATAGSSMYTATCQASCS
Method in brief: (§1)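 Cells were resuspended in assay buffer at batch-optimized density, typically 1×10^5 cells/mL for hGLP-1R and 2×10^5 cells/mL for hGCGR. After 30 min incubation at room temperature with compound, cAMP was measured by two-step HTRF. EC50 values came from 4-parameter logistic fits of % Delta F.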

[5] = target: human glucagon receptor (hGCGR) (Homo sapiens, UniProt P47871); test: cAMP production (HTRF) in CHO cells expressing hGCGR; assay type: cell-based; set-up: expressed in transfected cells; conditions: Table 6, peptides modified at position 17; cAMP in CHO hGCGR cells; geometric mean; read-out: hGluc-R EC50
Chain of human glucagon receptor (hGCGR) (P47871 26-477): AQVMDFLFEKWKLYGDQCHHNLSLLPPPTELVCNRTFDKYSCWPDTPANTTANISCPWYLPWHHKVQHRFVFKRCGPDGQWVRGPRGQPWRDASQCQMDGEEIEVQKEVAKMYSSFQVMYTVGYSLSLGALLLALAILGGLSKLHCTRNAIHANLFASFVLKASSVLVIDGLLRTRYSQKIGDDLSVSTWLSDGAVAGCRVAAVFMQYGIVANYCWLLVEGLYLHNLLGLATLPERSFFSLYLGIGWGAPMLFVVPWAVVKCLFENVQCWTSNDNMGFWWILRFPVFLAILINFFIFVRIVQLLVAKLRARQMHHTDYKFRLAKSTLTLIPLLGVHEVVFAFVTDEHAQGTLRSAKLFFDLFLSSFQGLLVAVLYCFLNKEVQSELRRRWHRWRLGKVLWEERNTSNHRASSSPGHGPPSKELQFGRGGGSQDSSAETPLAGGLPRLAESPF
Method in brief: as §1

- remaining at 5 min, 3.3 mg/mL [1]: 96%
- remaining at 10 min, 3.3 mg/mL [1]: 98%
- remaining at 0.25 h, 3.3 mg/mL [1]: 96%
- remaining at 0.5 h, 3.3 mg/mL [1]: 94%
- remaining at 5 min, 125 µM [2]: 81%
- remaining at 0.25 h, 125 µM [2]: 35%
- remaining at 0.5 h, 125 µM [2]: 18%
- EC50 ([4]; Table 6, peptides modified at position 17, cAMP in CHO hGLP-1R cells, geometric mean, read-out: hGLP-1R EC50): 0.0846 nM
- % Relative Potency Ratio ([4]; Table 6, % GLP-1R activity relative to GLP-1 / % GlucR activity relative to glucagon): 0.7
- EC50 [5]: 0.0307 nM
Compound: CC[C@H](C)[C@H](NC(=O)[C@H](Cc1c[nH]c2ccccc12)NC(=O)[C@H](CCC(=O)O)NC(=O)[C@@H](NC(=O)[C@](C)(Cc1ccccc1)NC(=O)[C@H](CC(=O)O)NC(=O)[C@H](CCC(N)=O)NC(=O)[C@H](C)NC(=O)[C@H](C)NC(=O)[C@H](CCCCNC(=O)CC[C@H](NC(=O)CCCCCCCCCCCCCCCCC(=O)O)C(=O)O)NC(=O)[C@H](CO)NC(=O)[C@H](CC(=O)O)NC(=O)[C@H](CC(C)C)NC(=O)[C@](C)(Cc1ccccc1)NC(=O)[C@H](CCCCN)NC(=O)[C@H](CO)NC(=O)[C@@H](NC(=O)[C@H](CC(=O)O)NC(=O)[C@H](CO)NC(=O)[C@@H](NC(=O)[C@](C)(Cc1ccccc1)NC(=O)[C@H](CO)NC(=O)CNC(=O)[C@H](Cc1c[nH]cn1)NC(=O)C(C)(C)NC(=O)[C@@H](N)Cc1c[nH]cn1)[C@@H](C)O)C(C)C)C(C)C)C(=O)N[C@@H](C)C(=O)N[C@@H](CC(N)=O)C(=O)N[C@H](C(N)=O)[C@@H](C)O [Peptide 7] (H-H[Aib]HGS[αMeF]TSDVSK[αMeF]LDSK([γGlu-C18 diacid])AAQD[αMeF]VEWIANT-NH2; N-terminus assumed)
- WT % glucose change 120 min (wildtype (WT) mice; 1.5 nmol/kg): 5.4%
- WT % glucose change 120 min (wildtype (WT) mice; 5 nmol/kg): −21.2%
- GLP-1R KO % glucose change 120 min ([3]; 1.5 nmol/kg): 80.8%
- GLP-1R KO % glucose change 120 min ([3]; 5 nmol/kg): 152.9%
